The target in test [1] is T1, human muscarinic M1 receptor (Homo sapiens, UniProt P11229).
T1 construct: expressed in transfected cells
T1 sequence (P11229 1-460): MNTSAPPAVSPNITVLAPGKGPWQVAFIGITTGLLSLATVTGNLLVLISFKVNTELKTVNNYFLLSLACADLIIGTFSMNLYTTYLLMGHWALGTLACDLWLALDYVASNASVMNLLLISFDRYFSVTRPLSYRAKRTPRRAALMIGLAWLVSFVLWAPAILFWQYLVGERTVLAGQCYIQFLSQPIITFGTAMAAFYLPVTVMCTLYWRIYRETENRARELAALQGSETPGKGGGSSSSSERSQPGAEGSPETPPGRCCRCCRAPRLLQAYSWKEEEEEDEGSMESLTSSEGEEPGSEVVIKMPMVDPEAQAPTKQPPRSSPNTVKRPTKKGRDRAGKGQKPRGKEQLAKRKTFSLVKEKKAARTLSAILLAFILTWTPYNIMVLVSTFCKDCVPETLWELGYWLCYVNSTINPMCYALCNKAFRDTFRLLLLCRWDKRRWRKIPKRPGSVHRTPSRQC
Description: Alphascreen Surefire phospho-ERK1/2 functional assay, M1. Type of test: cell-based. Conditions: for M1 % Emax cf. ACh / EC50: CHO cells stably expressing human M1; for M1 % Emax cf. ACh / Emax: Emax relative to ACh; for EC50: phospho-ERK1/2, read-out: pEC50 M1 (converted); for Emax: CHO, read-out: M1 % Emax cf. ACh, CHO cells stably expressing human M1. Background: In Alpha technology, singlet oxygen from a donor bead excites a nearby acceptor bead.
Description: (§1) CHO cells stably expressing the human muscarinic M1, M2, M3 or M4 receptor were plated (25K/well) onto 96-well tissue culture plates in MEM-alpha+10% dialysed FBS. Once adhered, cells were serum-starved overnight. Agonist stimulation was performed by the addition of 5 μL agonist to the cells for 5 min (37° C.). Media was removed and 50 μL of lysis buffer added. After 15 min, a 4 μL sample was transferred to 384-well plate and 7 μL of detection mixture added. Plates were incubated for 2 h with gentle agitation in the dark and then read on a PHERAstar plate reader.
(§2) pEC50 and Emax figures were calculated from the resulting data for each receptor subtype.

Test [2] concerns the target T2, human muscarinic M4 receptor (Homo sapiens, UniProt P08173).
T2 construct: expressed in transfected cells
T2 sequence (P08173 1-479): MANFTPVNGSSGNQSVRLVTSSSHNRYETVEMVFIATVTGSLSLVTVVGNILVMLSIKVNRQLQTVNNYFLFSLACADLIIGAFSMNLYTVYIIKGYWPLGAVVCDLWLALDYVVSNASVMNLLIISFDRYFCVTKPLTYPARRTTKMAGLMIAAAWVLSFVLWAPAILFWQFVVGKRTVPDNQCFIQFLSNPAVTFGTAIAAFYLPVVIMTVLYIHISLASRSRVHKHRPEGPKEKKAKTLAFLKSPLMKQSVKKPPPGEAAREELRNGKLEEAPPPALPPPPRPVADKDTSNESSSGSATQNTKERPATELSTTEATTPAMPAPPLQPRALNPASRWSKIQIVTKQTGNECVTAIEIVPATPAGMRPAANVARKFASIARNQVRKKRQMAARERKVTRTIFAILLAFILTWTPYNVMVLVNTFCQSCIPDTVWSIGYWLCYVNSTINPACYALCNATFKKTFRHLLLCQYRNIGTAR
The test is described as follows: Alphascreen Surefire phospho-ERK1/2 functional assay, M4. The conditions noted are these: for M4 % Emax cf. ACh / EC50: CHO cells stably expressing human M4; for M4 % Emax cf. ACh / Emax: Emax relative to ACh; for EC50: phospho-ERK1/2, read-out: pEC50 M4 (converted); for Emax: CHO, read-out: M4 % Emax cf. ACh, CHO cells stably expressing human M4. Type of test: cell-based.

Test [3] addresses T3, human muscarinic M2 receptor (Homo sapiens, UniProt P08172).
T3 sequence (P08172 1-466): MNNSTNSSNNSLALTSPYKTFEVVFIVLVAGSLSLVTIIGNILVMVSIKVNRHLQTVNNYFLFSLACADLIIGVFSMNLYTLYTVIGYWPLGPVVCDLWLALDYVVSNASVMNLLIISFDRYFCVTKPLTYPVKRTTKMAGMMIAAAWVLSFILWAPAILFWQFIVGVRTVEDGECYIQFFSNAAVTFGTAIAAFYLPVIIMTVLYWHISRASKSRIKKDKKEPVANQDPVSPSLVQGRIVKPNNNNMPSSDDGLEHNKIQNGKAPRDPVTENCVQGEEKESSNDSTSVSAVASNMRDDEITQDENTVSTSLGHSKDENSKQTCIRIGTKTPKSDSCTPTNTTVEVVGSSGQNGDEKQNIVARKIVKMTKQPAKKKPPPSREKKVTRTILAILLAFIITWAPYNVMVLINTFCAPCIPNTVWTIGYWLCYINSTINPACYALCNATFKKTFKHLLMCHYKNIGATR
Description: Alphascreen Surefire phospho-ERK1/2 functional assay, M2. Conditions: for Emax: CHO, read-out: M2 % Emax cf. ACh, CHO cells stably expressing human M2; for Emax / M2 % Emax cf. ACh: Emax relative to ACh; for EC50: pEC50 M2, CHO cells stably expressing human M2; for EC50 / pEC50 M2: phospho-ERK1/2; for M2 % Emax cf. ACh / pEC50 M2: CHO cells stably expressing human M2.
Description: as §1, §2

For test [4], the target named is human muscarinic M3 receptor (Homo sapiens, UniProt P20309). Description: Alphascreen Surefire phospho-ERK1/2 functional assay, M3. The conditions noted are these: for Emax: CHO, read-out: M3 % Emax cf. ACh, CHO cells stably expressing human M3; for Emax / M3 % Emax cf. ACh: Emax relative to ACh; for M3 % Emax cf. ACh / pEC50 M3: CHO cells stably expressing human M3; for pEC50 M3: phospho-ERK1/2.
Description: as §1, §2

These results are taken from patent US10167284B2, “Spirocyclic compounds as agonists of the muscarinic M1 receptor and/or M4 receptor” (HEPTARES THERAPEUTICS LIMITED, priority 2015, dated 2019).

Bounds are passed on as bounds.

Sequence of human muscarinic M3 receptor (P20309 whole entry): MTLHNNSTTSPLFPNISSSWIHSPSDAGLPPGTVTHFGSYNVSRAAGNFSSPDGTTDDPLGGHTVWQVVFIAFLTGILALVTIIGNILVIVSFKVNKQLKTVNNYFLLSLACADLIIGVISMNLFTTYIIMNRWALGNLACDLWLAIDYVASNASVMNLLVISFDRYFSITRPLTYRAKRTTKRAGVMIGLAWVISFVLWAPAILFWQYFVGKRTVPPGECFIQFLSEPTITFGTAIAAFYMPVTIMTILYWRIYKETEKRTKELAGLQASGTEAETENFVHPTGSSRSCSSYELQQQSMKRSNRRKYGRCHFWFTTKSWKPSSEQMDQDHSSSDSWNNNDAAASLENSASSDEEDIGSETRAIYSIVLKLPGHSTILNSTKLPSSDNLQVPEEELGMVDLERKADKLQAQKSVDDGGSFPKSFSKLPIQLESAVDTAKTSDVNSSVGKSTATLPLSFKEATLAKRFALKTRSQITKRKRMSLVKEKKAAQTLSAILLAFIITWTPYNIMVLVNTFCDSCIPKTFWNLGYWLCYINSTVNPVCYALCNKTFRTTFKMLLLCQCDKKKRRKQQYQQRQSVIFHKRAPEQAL

For `CCCN1C(=O)OC2(CCN(C3CC4(CCN(C(=O)OCC)C4)C3)CC2)C1CC` (single isomer, unassigned) [4-23 Isomer 3], in test [1], the “M1 % Emax cf. ACh” value is given as “(88) %” and the EC50 was 316 nM. For the same compound, in test [2], the “M4 % Emax cf. ACh” value is “(32) %” and the EC50 was 50.1 nM. In addition, in test [3], the maximal effect (Emax) amounted to 8% and the EC50 was above 20000 nM. In addition, in test [4], the EC50 is above 20000 nM and the Emax stood at 4%.
As for `CCCN1C(=O)OC2(CCN(C3CC4(CCN(C(=O)OCC)C4)C3)CC2)C1CC` (single isomer, unassigned) [4-23 Isomer 4], in test [1], the “M1 % Emax cf. ACh” value is listed as “(96) %” and the EC50 was 316 nM. In test [2], the “M4 % Emax cf. ACh” value is recorded as “(109) %” and the EC50 is 10 nM. In test [3], the “M2 % Emax cf. ACh” value is recorded as “(8) %” and the “pEC50 M2” value is below 4.7. For the same compound, in test [4], the “M3 % Emax cf. ACh” value is reported as “(3) %” and the “pEC50 M3” value was below 4.7.
Take `CCOC(=O)N1CCC2(CC(N3CCC4(CC3)OC(=O)N(CC(C)C)C4CC)C2)C1` (single isomer, unassigned) [4-24 Isomer 2 (racemic)]: the EC50 in test [1] is 501 nM; in test [2], 10 nM; in test [3] it was above 20000 nM; in test [4] it was above 20000 nM. Besides, the Emax in test [1] amounted to 84%; in test [2] it was 84%; in test [3] it was 53%; in test [4], 2%.
As for `CCOC(=O)N1CCC2(CC(N3CCC4(CC3)OC(=O)NC43CCCC3)C2)C1` (single isomer, unassigned) [4-31 Isomer 2], the EC50 in test [1] is 794 nM; in test [2], 31.6 nM; in test [3], above 20000 nM; in test [4], above 20000 nM. In addition, the maximal effect (Emax) was found to be 66% in test [1], 88% in test [2], 4% in test [3] and 4% in test [4].
`CCN1C(=O)OC2(CCN(C3CC4(CCN(C(=O)OC)C4)C3)CC2)C1(C)C` (single isomer, unassigned) [4-34 Isomer 2]: the EC50 in test [1] is 2000 nM; in test [2], 100 nM; in test [3] it was above 20000 nM; in test [4], above 20000 nM. For the same compound, the Emax in test [1] was found to be 34%; in test [2], 83%; in test [3], 2%; in test [4] it was 1%.
As for `CCCN1C(=O)OC2(CCN(C3CC4(CCN(C(=O)OC)C4)C3)CC2)C1(C)C` (single isomer, unassigned) [4-36 Isomer 2], the EC50 in test [1] was 12600 nM; in test [2] it was 79.4 nM; in test [3] it was above 20000 nM; in test [4] it was above 20000 nM. For the same compound, the Emax came to 35% in test [1], 106% in test [2], 52% in test [3] and 1% in test [4].
As to `CCCN1C(=O)OC2(CCN(C3CC4(CCN(C(=O)OCC)C4)C3)CC2)C1(C)C` (single isomer, unassigned) [4-37 Isomer 1], in test [1], the “M1 % Emax cf. ACh” value was “(84) %” and the EC50 was 398 nM. For the same compound, in test [2], the “M4 % Emax cf. ACh” value is reported as “(138) %” and the EC50 was 5.01 nM. In test [3], the Emax came out at 3% and the EC50 was above 20000 nM. Moreover, in test [4], the EC50 was above 20000 nM and the Emax is 7%.
Take `CCOC(=O)N1CCC2(CC(N3CCC4(CC3)OC(=O)N(CC(C)C)C4(C)C)C2)C1` (single isomer, unassigned) [4-38 Isomer 1]: in test [1], the “M1 % Emax cf. ACh” value was “(72) %” and the EC50 is 1000 nM. Also, in test [2], the EC50 was 63.1 nM and the Emax worked out at 97%. Besides, in test [3], the “M2 % Emax cf. ACh” value was “(7) %” and the EC50 is above 20000 nM. Also, in test [4], the EC50 is above 20000 nM and the “M3 % Emax cf. ACh” value is reported as “(3) %”.
For the compound `CCOC(=O)N1CCC2(CC(N3CCC4(CC3)OC(=O)N(CC(C)C)C4(C)C)C2)C1` (single isomer, unassigned) [4-38 Isomer 2], in test [1], the “M1 % Emax cf. ACh” value is on record as “(25) %” and the EC50 was above 20000 nM. In addition, in test [2], the “M4 % Emax cf. ACh” value is “(95) %” and the EC50 was 31.6 nM. Besides, in test [3], the “M2 % Emax cf. ACh” value was “(3) %” and the “pEC50 M2” value is recorded as below 4.7. In addition, in test [4], the “M3 % Emax cf. ACh” value was “(1) %” and the “pEC50 M3” value was below 4.7.
With `CCOC(=O)N1CCC2(CC(N3CCC4(CC3)OC(=O)N(CC3CC3)C4(C)C)C2)C1` (single isomer, unassigned) [4-39 Isomer 2], the EC50 in test [1] is 794 nM; in test [2], 63.1 nM; in test [3], above 20000 nM; in test [4], above 20000 nM. Moreover, the Emax in test [1] stood at 56%; in test [2], 88%; in test [3] it was 87%; in test [4], 8%.
Turning to `CCOC(=O)N1CCC2(CC(N3CCC4(CC3)OC(=O)N(CCF)C4(C)C)C2)C1` (single isomer, unassigned) [4-40 Isomer 2], the EC50 is 7940 nM in test [1], 39.8 nM in test [2], above 20000 nM in test [3] and above 20000 nM in test [4]. Besides, the maximum response (Emax) stood at 37% in test [1], 109% in test [2], 4% in test [3] and 6% in test [4].
Consider `CCOC(=O)N1CCC2(CC(N3CCC4(CC3)OC(=O)N(CCOC)C4(C)C)C2)C1` (single isomer, unassigned) [4-41 Isomer 2], for which the EC50 in test [1] was above 20000 nM; in test [2] it was 100 nM; in test [3], above 20000 nM; in test [4], above 20000 nM. Moreover, the Emax in test [1] was determined as 8%; in test [2] it was 86%; in test [3], 5%; in test [4], 42%.
Consider `CCOC(=O)N1CCC2(CC(N3CCC4(CC3)OC(=O)N(CC(F)(F)F)C4(C)C)C2)C1` (single isomer, unassigned) [4-43 Isomer 2], for which the EC50 was above 20000 nM in test [1], 79.4 nM in test [2], above 20000 nM in test [3] and above 20000 nM in test [4]. Besides, the Emax in test [1] was 6%; in test [2], 75%; in test [3], 5%; in test [4], 6%.
In the case of `CCOC(=O)N1CCC2(CC(N3CCC4(CC3)OC(=O)N3CCCC34)C2)C1` (single isomer, unassigned) [4-44 Isomer 3], in test [1], the “M1 % Emax cf. ACh” value was “(40) %” and the EC50 is 200 nM. Moreover, in test [2], the “M4 % Emax cf. ACh” value is reported as “(43) %” and the EC50 was 50.1 nM. Further, in test [3], the Emax is 7% and the EC50 is above 20000 nM. Moreover, in test [4], the EC50 was above 20000 nM and the “M3 % Emax cf. ACh” value is “(3) %”.
As for `CCOC(=O)N1CCC2(CC(N3CCC4(CC3)OC(=O)N3CCCC34)C2)C1` (single isomer, unassigned) [4-44 Isomer 4], in test [1], the “M1 % Emax cf. ACh” value was “(67) %” and the EC50 was 1260 nM. Moreover, in test [2], the “M4 % Emax cf. ACh” value is recorded as “(97) %” and the EC50 was 79.4 nM. Further, in test [3], the “M2 % Emax cf. ACh” value is “(14) %” and the “pEC50 M2” value was below 4.7. Also, in test [4], the “M3 % Emax cf. ACh” value is “(10) %” and the “pEC50 M3” value is listed as below 4.7.

As a reminder, the Emax is the greatest response seen or fitted, relative to the assay's reference.
